PubChem BioAssay AID248 (DTP/NCI, 2004)
Toxic doses and inconclusive results are not listed. No stated cut-off is given here; in the data, active means T/C of 150% or more; inactive means T/C below 125%.

System: L1210 leukemia ip in BDF1 mice, survival T/C
Test: NCI In Vivo Anticancer Drug Screen. Data for tumor model L1210 Leukemia (intraperitoneal) in B6D2F1 (BDF1) mice
Conditions: endpoint: mean survival time, higher = longer survival
Outline: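 Read-out is survival time, reported as the treated-group measurement over the vehicle-control measurement.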

[1] = dose: 100.0 mg/kg/injection, schedule: Q01DX009 (ip), vehicle: saline with Tween-80
[2] = dose: 100.0 mg/kg/injection, schedule: Q04DX003 (ip), vehicle: saline with Tween-80
[3] = dose: 200.0 mg/kg/injection, schedule: Q01DX009 (ip), vehicle: saline with Tween-80
[4] = dose: 200.0 mg/kg/injection, schedule: Q04DX003 (ip), vehicle: saline with Tween-80
[5] = dose: 400.0 mg/kg/injection, schedule: Q04DX003 (ip), vehicle: saline with Tween-80
[6] = dose: 100.0 mg/kg/injection, schedule: Q04DX003 (ip), vehicle: gum acacia
[7] = dose: 200.0 mg/kg/injection, schedule: Q04DX003 (ip), vehicle: gum acacia
[8] = dose: 400.0 mg/kg/injection, schedule: Q04DX003 (ip), vehicle: gum acacia
[9] = dose: 100.0 mg/kg/injection, schedule: Q04DX003 (ip), vehicle: saline
[10] = dose: 200.0 mg/kg/injection, schedule: Q04DX003 (ip), vehicle: saline
[11] = dose: 400.0 mg/kg/injection, schedule: Q04DX003 (ip), vehicle: saline
[12] = dose: 100.0 mg/kg/injection, schedule: Q01DX009 (ip), vehicle: Klucel (hydroxypropylcellulose) (HPC)
[13] = dose: 200.0 mg/kg/injection, schedule: Q01DX009 (ip), vehicle: Klucel (hydroxypropylcellulose) (HPC)
[14] = dose: 400.0 mg/kg/injection, schedule: Q01DX009 (ip), vehicle: Klucel (hydroxypropylcellulose) (HPC)
[15] = dose: 100.0 mg/kg/injection, schedule: Q04DX003 (ip), vehicle: Klucel (hydroxypropylcellulose) (HPC)
[16] = dose: 200.0 mg/kg/injection, schedule: Q04DX003 (ip), vehicle: Klucel (hydroxypropylcellulose) (HPC)
[17] = dose: 400.0 mg/kg/injection, schedule: Q04DX003 (ip), vehicle: Klucel (hydroxypropylcellulose) (HPC)
[18] = dose: 100.0 mg/kg/injection, schedule: Q04DX002 (ip), vehicle: Klucel (hydroxypropylcellulose) (HPC)
[19] = dose: 100.0 mg/kg/injection, schedule: Q01DX001 (ip), vehicle: saline with Tween-80
[20] = dose: 200.0 mg/kg/injection, schedule: Q01DX001 (ip), vehicle: saline with Tween-80
[21] = dose: 400.0 mg/kg/injection, schedule: Q01DX001 (ip), vehicle: saline with Tween-80
[22] = dose: 25.0 mg/kg/injection, schedule: Q04DX002 (ip), vehicle: Klucel (hydroxypropylcellulose) (HPC)
[23] = dose: 50.0 mg/kg/injection, schedule: Q04DX002 (ip), vehicle: Klucel (hydroxypropylcellulose) (HPC)

Measured: T/C

O=CC(Cl)Cl
inactive: dose: 100.0 mg/kg/injection, schedule: Q01DX009 (ip), vehicle: saline 92 % of control | dose: 200.0 mg/kg/injection, schedule: Q01DX009 (ip), vehicle: saline 110 % of control | dose: 400.0 mg/kg/injection, schedule: Q01DX009 (ip), vehicle: saline 108 % of control

CC(=O)c1ccc2c3c(cccc13)CC2
inactive: [1] 102 % of control | [2] 88 % of control | [3] 98 % of control | [4] 104 % of control | dose: 400.0 mg/kg/injection, schedule: Q01DX009 (ip), vehicle: saline with Tween-80 101 % of control | [5] 97 % of control

CN(C)C(=O)Sc1ccc(C(=O)O)cc1
inactive: [6] 109 % of control | [7] 98 % of control | [8] 113 % of control

O=C1CCCO1
inactive: [9] 92 % of control | [10] 100 % of control | [11] 94 % of control

O=CN/N=C/c1cccc([N+](=O)[O-])c1
inactive: dose: 75.0 mg/kg/injection, schedule: Q01DX001 (ip), vehicle: saline 95 % of control | dose: 150.0 mg/kg/injection, schedule: Q01DX001 (ip), vehicle: saline 95 % of control | dose: 300.0 mg/kg/injection, schedule: Q01DX001 (ip), vehicle: saline 92 % of control

O=C(O)C1C2CCC(C2)C1C(=O)O (stereo unspecified)
inactive: [2] 90 % of control | [9] 100 % of control | [4] 98 % of control | [10] 100 % of control | [5] 102 % of control | [11] 105 % of control

COc1cccc2c1C(=O)c1c(O)c3c(c(O)c1C2=O)C[C@@](O)(/C(C)=N\O)C[C@@H]3OC1CC(N)C(O)C(C)O1 (stereo partly specified)
inactive: dose: 1.0 mg/kg/injection, schedule: Q04DX003 (ip), vehicle: water 106 % of control | dose: 2.0 mg/kg/injection, schedule: Q04DX003 (ip), vehicle: water 115 % of control | dose: 4.0 mg/kg/injection, schedule: Q04DX003 (ip), vehicle: water 113 % of control

CCc1cc(C)cc(OC(=O)Nc2cc(Cl)ccc2C)c1
inactive: [12] 95 % of control | [13] 90 % of control | [14] 100 % of control

O=C(OCCCCCOC(=O)c1ccccc1O)c1ccccc1O
inactive: dose: 100.0 mg/kg/injection, schedule: Q01DX001 (ip), vehicle: other 91 % of control | [15] 92 % of control | dose: 200.0 mg/kg/injection, schedule: Q01DX001 (ip), vehicle: other 88 % of control | [16] 91 % of control | [17] 89 % of control

C=C(C)CN1C(=O)c2ccccc2C1=O
inactive: dose: 25.0 mg/kg/injection, schedule: Q01DX009 (ip), vehicle: gum acacia 94 % of control | dose: 50.0 mg/kg/injection, schedule: Q01DX009 (ip), vehicle: gum acacia 96 % of control | dose: 100.0 mg/kg/injection, schedule: Q01DX009 (ip), vehicle: gum acacia 88 % of control | [6] 108 % of control | [7] 97 % of control | [8] 93 % of control

Cc1c(C(N)=O)no[n+]1[O-]
inactive: [18] 87 % of control | dose: 200.0 mg/kg/injection, schedule: Q04DX002 (ip), vehicle: Klucel (hydroxypropylcellulose) (HPC) 109 % of control

O=C1C=C(C(=O)O)C(c2ccccc2)CC1 (stereo unspecified)
inactive: [12] 88 % of control | [15] 100 % of control | [13] 95 % of control | [16] 95 % of control | [14] 98 % of control | [17] 98 % of control

CC(C)CC(=O)C=C(C(F)(F)F)C(F)(F)F
inactive: [19] 91 % of control | [20] 96 % of control | [21] 93 % of control

Clc1ccc(C2CC3(CC(c4ccc(Cl)cc4)N2)SSC2(CC(c4ccc(Cl)cc4)NC(c4ccc(Cl)cc4)C2)S3)cc1 (stereo unspecified)
inactive: [12] 98 % of control | [13] 108 % of control | [14] 98 % of control

Fc1cc(N(CCCl)CCCl)ccc1C=Nc1ccc(-n2ccnc2)cc1
inactive: dose: 62.5 mg/kg/injection, schedule: Q04DX002 (ip), vehicle: Klucel (hydroxypropylcellulose) (HPC) 102 % of control | dose: 125.0 mg/kg/injection, schedule: Q04DX002 (ip), vehicle: Klucel (hydroxypropylcellulose) (HPC) 106 % of control | dose: 250.0 mg/kg/injection, schedule: Q04DX002 (ip), vehicle: Klucel (hydroxypropylcellulose) (HPC) 106 % of control

CCOC(=O)c1cc(C(=O)OCC)c[n+](CCCl)c1
inactive: dose: 8.0 mg/kg/injection, schedule: Q01DX010 (ip), vehicle: other 104 % of control | dose: 16.0 mg/kg/injection, schedule: Q01DX010 (ip), vehicle: other 104 % of control | dose: 32.0 mg/kg/injection, schedule: Q01DX010 (ip), vehicle: other 111 % of control | dose: 64.0 mg/kg/injection, schedule: Q01DX010 (ip), vehicle: other 109 % of control | dose: 64.0 mg/kg/injection, schedule: Q01DX Z (ip), vehicle: other 105 % of control

COc1ccc(C=O)cc1OCCCCCOc1cc(C=O)ccc1OC
inactive: dose: 50.0 mg/kg/injection, schedule: Q01DX009 (ip), vehicle: Klucel (hydroxypropylcellulose) (HPC) 86 % of control | [12] 101 % of control | [13] 90 % of control

O=C(NC(=O)c1ccccc1)C(=O)c1ccccc1
inactive: [19] 94 % of control | [20] 105 % of control | [21] 87 % of control

O=c1[nH]c2c(N3CCOCC3)cccc2o1
inactive: [22] 93 % of control | [23] 97 % of control | [18] 97 % of control

ClCCCCCCCCCCc1ccccc1
inactive: dose: 100.0 mg/kg/injection, schedule: Q01DX009 (ip), vehicle: saline sonified 91 % of control | dose: 100.0 mg/kg/injection, schedule: Q04DX003 (ip), vehicle: saline sonified 96 % of control | dose: 200.0 mg/kg/injection, schedule: Q01DX009 (ip), vehicle: saline sonified 93 % of control | dose: 200.0 mg/kg/injection, schedule: Q04DX003 (ip), vehicle: saline sonified 102 % of control | dose: 400.0 mg/kg/injection, schedule: Q01DX009 (ip), vehicle: saline sonified 89 % of control | dose: 400.0 mg/kg/injection, schedule: Q04DX003 (ip), vehicle: saline sonified 98 % of control

Clc1cc[c]([Sn]([O][Sn]([c]2ccc(Cl)cc2)([c]2ccc(Cl)cc2)[c]2ccc(Cl)cc2)([c]2ccc(Cl)cc2)[c]2ccc(Cl)cc2)cc1
inactive: [22] 107 % of control | [23] 91 % of control

CN(C)C(=S)NCc1ccccc1
inactive: [1] 95 % of control | [3] 101 % of control

O=C(N/N=C/c1ccc(Cl)cc1Cl)c1ccccc1
inactive: [15] 101 % of control | [16] 95 % of control

Clc1ccc2c(c1)C(=P(c1ccccc1)(c1ccccc1)c1ccccc1)c1cc(Cl)cc(Cl)c1-2
inactive: dose: 100.0 mg/kg/injection, schedule: Q01DX001 (ip), vehicle: Klucel (hydroxypropylcellulose) (HPC) 96 % of control | [15] 102 % of control | dose: 200.0 mg/kg/injection, schedule: Q01DX001 (ip), vehicle: Klucel (hydroxypropylcellulose) (HPC) 96 % of control | [16] 95 % of control | dose: 400.0 mg/kg/injection, schedule: Q01DX001 (ip), vehicle: Klucel (hydroxypropylcellulose) (HPC) 91 % of control | [17] 93 % of control

O=C1NCN(CCO)CN1
inactive: [9] 95 % of control | [10] 91 % of control | [11] 98 % of control

CC(C)(C)[C]1=Nc2cccc[c]2[Ge]1([CH3])[CH3]
inactive: dose: 100.0 mg/kg/injection, schedule: Q04DX002 (ip), vehicle: saline with Tween-80 108 % of control | dose: 200.0 mg/kg/injection, schedule: Q04DX002 (ip), vehicle: saline with Tween-80 93 % of control | dose: 400.0 mg/kg/injection, schedule: Q04DX002 (ip), vehicle: saline with Tween-80 97 % of control
